The results in this text go back to patent US9732075B2, “Benzimidazole-proline derivatives” (IDORSIA PHARMACEUTICALS LTD, priority 2012, dated 2017).

The target of one assay is human orexin-2 receptor (Homo sapiens (Human), UniProt O43614). Description: In vitro assay: intracellular calcium measurements (FLIPR), antagonistic activity. The following applies: CHO cells expressing human orexin-2 receptor, orexin-A agonist, geometric mean, read-out: IC50 Ox2. It is filed as cell-based. As for the experimental part: (§1) In Vitro Assay: Intracellular Calcium Measurements:
(§2) Chinese hamster ovary (CHO) cells expressing the human orexin-1 receptor and the human orexin-2 receptor, respectively, are grown in culture medium (Ham F-12 with L-Glutamine) containing 300 μg/ml G418, 100 U/ml penicillin, 100 μg/ml streptomycin and 10% heat inactivated fetal calf serum (FCS). The cells are seeded at 20,000 cells/well into 384-well black clear bottom sterile plates (Greiner). The seeded plates are incubated overnight at 37° C. in 5% CO2.
(§3) Human orexin-A as an agonist is prepared as 1 mM stock solution in MeOH: water (1:1), diluted in HBSS containing 0.1% bovine serum albumin (BSA), NaHCO3: 0.375 g/l and 20 mM HEPES for use in the assay at a final concentration of 3 nM.
(§4) Antagonists are prepared as 10 mM stock solution in DMSO, then diluted in 384-well plates using DMSO followed by a transfer of the dilutions into in HBSS containing 0.1% bovine serum albumin (BSA), NaHCO3: 0.375 g/l and 20 mM HEPES. On the day of the assay, 50 μl of staining buffer (HBSS containing 1% FCS, 20 mM HEPES, NaHCO3: 0.375 g/l, 5 mM probenecid (Sigma) and […] of the fluorescent calcium indicator fluo-4 AM (1 mM stock solution in DMSO, containing 10% pluronic) is added to each well. The 384-well cell-plates are incubated for 50 min at 37° C. in 5% CO2 followed by equilibration at RT for 30 min before measurement.
(§5) Within the Fluorescent Imaging Plate Reader (FLIPR Tetra, Molecular Devices), antagonists are added to the plate in a volume of 10 μl/well, incubated for 120 min and finally 10 μl/well of agonist is added. Fluorescence is measured for each well at 1 second intervals, and the height of each fluorescence peak is compared to the height of the fluorescence peak induced by an approximate EC70 (for example 5 nM) of orexin-A with vehicle in place of antagonist. The IC50 value (the concentration of compound needed to inhibit 50% of the agonistic response) is determined and may be normalized using the obtained IC50 value of a on-plate reference compound. Optimized conditions are achieved by adjustment of pipetting speed and cell splitting regime. The calculated IC50 values may fluctuate depending on the daily cellular assay performance. Fluctuations of this kind are known to those skilled in the art. Average IC50 values from several measurements are given as geometric mean values.
A general note: Calcium assays in cells follow changes in intracellular calcium, usually with a dye or a luminescent sensor.

The target in a further assay is human orexin-1 receptor (Homo sapiens (Human), UniProt O43613). Described as above. It is filed as cell-based. The note with it: CHO cells expressing human orexin-1 receptor, orexin-A agonist, geometric mean, read-out: IC50 Ox1. As for the experimental part: as §1, §2, §3, §4, §5
Chain of human orexin-1 receptor (O43613 whole entry): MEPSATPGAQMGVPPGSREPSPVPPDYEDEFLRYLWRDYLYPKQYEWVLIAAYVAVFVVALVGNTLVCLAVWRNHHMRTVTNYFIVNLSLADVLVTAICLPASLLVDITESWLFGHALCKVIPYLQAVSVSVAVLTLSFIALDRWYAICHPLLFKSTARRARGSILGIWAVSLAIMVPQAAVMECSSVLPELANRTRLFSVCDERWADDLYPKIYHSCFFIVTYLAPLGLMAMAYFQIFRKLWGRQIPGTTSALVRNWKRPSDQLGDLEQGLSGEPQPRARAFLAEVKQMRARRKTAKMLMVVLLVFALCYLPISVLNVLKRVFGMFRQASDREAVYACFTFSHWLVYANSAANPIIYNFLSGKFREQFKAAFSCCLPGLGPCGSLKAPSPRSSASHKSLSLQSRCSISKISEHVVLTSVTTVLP

Chain of human orexin-2 receptor (O43614 whole entry): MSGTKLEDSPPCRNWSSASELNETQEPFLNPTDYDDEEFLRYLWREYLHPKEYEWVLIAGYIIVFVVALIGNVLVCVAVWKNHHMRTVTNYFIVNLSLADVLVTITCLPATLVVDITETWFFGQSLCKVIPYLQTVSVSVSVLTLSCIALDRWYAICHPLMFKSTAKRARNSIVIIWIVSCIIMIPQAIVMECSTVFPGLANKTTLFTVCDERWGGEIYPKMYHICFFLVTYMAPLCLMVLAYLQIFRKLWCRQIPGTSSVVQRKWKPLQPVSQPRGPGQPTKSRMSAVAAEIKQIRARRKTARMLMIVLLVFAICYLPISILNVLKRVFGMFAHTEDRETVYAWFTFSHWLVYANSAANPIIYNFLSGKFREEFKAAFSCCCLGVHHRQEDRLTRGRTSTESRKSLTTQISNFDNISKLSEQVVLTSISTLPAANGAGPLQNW

Broadly, the IC50 is the concentration at which inhibition is half-maximal. Consider `CSc1cccc2nc([C@@H]3CCCN3C(=O)c3cnc(C)nc3-c3ccc(Br)c(Cl)c3)[nH]c12` [Ex. 1.90], for which the results for the IC50 at human orexin-2 receptor and at human orexin-1 receptor were 14 nM and 2 nM, respectively.
In the same order, the values of `CSc1cccc2nc([C@@H]3CCCN3C(=O)c3cnc(C)nc3-c3cc(Cl)cc(Cl)c3)[nH]c12` [Ex. 1.91] are 25 nM and 13 nM.
Regarding `Cc1nc(C(=O)N2CCCC2c2nc3cc(Cl)c(Cl)cc3[nH]2)c(-c2cccc(Cl)c2)s1` (centres unmarked) [Ex. 1.92], the figures for the IC50 on human orexin-2 receptor and on human orexin-1 receptor were 69 nM and 23 nM, respectively.
Take `Cc1nc(C(=O)N2CCCC2c2nc3cc(Br)ccc3[nH]2)c(-c2cccc(Cl)c2)s1` (centres unmarked) [Ex. 1.93]: the IC50 turned out to be 458 nM on human orexin-2 receptor and 102 nM on human orexin-1 receptor.
In the same order, the values of `Cc1nc(C(=O)N2CCCC2c2nc3cc(C(F)(F)F)ccc3[nH]2)c(-c2cccc(Cl)c2)s1` (centres unmarked) [Ex. 1.94] are 414 nM and 42 nM.
In the same order, the values of `Cc1nc(C(=O)N2CCCC2c2nc3cc(C)c(C)cc3[nH]2)c(-c2cccc(Cl)c2)s1` (centres unmarked) [Ex. 1.95] are 15 nM and 18 nM.
For `Cc1nc(C(=O)N2CCCC2c2nc3c(C)cccc3[nH]2)c(-c2cccc(Cl)c2)s1` (centres unmarked) [Ex. 1.96], the IC50 at human orexin-2 receptor stood at 43 nM; at human orexin-1 receptor, 54 nM.
For `Cc1nc(C(=O)N2CCCC2c2nc3cc(Cl)ccc3[nH]2)c(-c2cccc(Cl)c2)s1` (centres unmarked) [Ex. 1.97] the same measures were 314 nM and 95 nM.
As to `Cc1nc(C(=O)N2CCCC2c2nc3cc(C(C)(C)C)ccc3[nH]2)c(-c2cccc(Cl)c2)s1` (centres unmarked) [Ex. 1.99], the half-maximal inhibitory concentration (IC50) amounted to 50 nM at human orexin-2 receptor and 58 nM at human orexin-1 receptor.
In the case of `Cc1nc(C(=O)N2CCCC2c2nc3c(Cl)cc(C(F)(F)F)cc3[nH]2)c(-c2cccc(Cl)c2)s1` (centres unmarked) [Ex. 1.100], the IC50 at human orexin-2 receptor is 104 nM; at human orexin-1 receptor it was 27 nM.
In the same order, the values of `Cc1nc(C(=O)N2CCCC2c2nc3cc(Cl)c(C)cc3[nH]2)c(-c2cccc(Cl)c2)s1` (centres unmarked) [Ex. 1.101] are 50 nM and 21 nM.
In the same order, the values of `Cc1nc(C(=O)N2CCCC2c2nc3c(CO)cccc3[nH]2)c(-c2cccc(Cl)c2)s1` (centres unmarked) [Ex. 1.103] are 112 nM and 364 nM.
For `Cc1nc(C(=O)N2CCCC2c2nc3c(F)cccc3[nH]2)c(-c2cccc(Cl)c2)s1` (centres unmarked) [Ex. 1.104] the same measures were 769 nM and 657 nM.
Take `Cc1nc(C(=O)N2CCCC2c2nc3c(C(F)(F)F)cccc3[nH]2)c(-c2cccc(Cl)c2)s1` (centres unmarked) [Ex. 1.105]: the figures for the IC50 at human orexin-2 receptor and on human orexin-1 receptor were 89 nM and 45 nM, respectively.
`Cc1nc(C(=O)N2CCCC2c2nc3c(Br)cccc3[nH]2)c(-c2cccc(Cl)c2)s1` (centres unmarked) [Ex. 1.106]: the IC50 on human orexin-2 receptor worked out at 31 nM; on human orexin-1 receptor, 17 nM.
With `Cc1nc(C(=O)N2CCCC2c2nc3cc(Br)cc(C)c3[nH]2)c(-c2cccc(Cl)c2)s1` (centres unmarked) [Ex. 1.107], the half-inhibitory concentration (IC50) at human orexin-2 receptor came out at 58 nM; at human orexin-1 receptor, 28 nM.
For `Cc1nc(C(=O)N2CCCC2c2nc3cc(OC(F)(F)F)ccc3[nH]2)c(-c2cccc(Cl)c2)s1` (centres unmarked) [Ex. 1.108] the same measures were 835 nM and 171 nM.
Turning to `Cc1nc(C(=O)N2CCCC2c2nc3c(C)c(Cl)ccc3[nH]2)c(-c2cccc(Cl)c2)s1` (centres unmarked) [Ex. 1.109], the IC50 was determined as 10 nM at human orexin-2 receptor and 5 nM at human orexin-1 receptor.
In the same order, the values of `COc1cc2nc(C3CCCN3C(=O)c3nc(C)sc3-c3cccc(Cl)c3)[nH]c2cc1OC` (centres unmarked) [Ex. 1.110] are 46 nM and 164 nM.
For `Cc1nc(C(=O)N2CCCC2c2nc3cc(C(F)(F)F)c(F)cc3[nH]2)c(-c2cccc(Cl)c2)s1` (centres unmarked) [Ex. 1.111] the same measures were 243 nM and 32 nM.
In the same order, the values of `Cc1nc(C(=O)N2CCCC2c2nc3cc(F)c(Br)cc3[nH]2)c(-c2cccc(Cl)c2)s1` (centres unmarked) [Ex. 1.112] are 289 nM and 69 nM.
For the compound `Cc1nc(C(=O)N2CCCC2c2nc3cc(C(F)(F)F)c(Cl)cc3[nH]2)c(-c2cccc(Cl)c2)s1` (centres unmarked) [Ex. 1.113], the IC50 on human orexin-2 receptor is 58 nM; on human orexin-1 receptor it was 5 nM.
In the same order, the values of `Cc1nc(C(=O)N2CCCC2c2nc3c(Br)cc(F)cc3[nH]2)c(-c2cccc(Cl)c2)s1` (centres unmarked) [Ex. 1.114] are 74 nM and 30 nM.
Take `Cc1nc(C(=O)N2CCCC2c2nc3c(C)c(C)ccc3[nH]2)c(-c2cccc(Cl)c2)s1` (centres unmarked) [Ex. 1.115]: the half-inhibitory concentration (IC50) at human orexin-2 receptor was determined as 19 nM; at human orexin-1 receptor, 37 nM.
Regarding `Cc1nc(C(=O)N2CCCC2c2nc3c(C(C)C)cccc3[nH]2)c(-c2cccc(Cl)c2)s1` (centres unmarked) [Ex. 1.116], the results for the 50% inhibitory concentration (IC50) at human orexin-2 receptor and on human orexin-1 receptor were 248 nM and 86 nM, respectively.
In the same order, the values of `Cc1nc(C(=O)N2CCCC2c2nc3c(C(F)(F)F)cc(C(F)(F)F)cc3[nH]2)c(-c2ccccc2)s1` (centres unmarked) [Ex. 1.118] are 364 nM and 191 nM.
For `Cc1nc(C(=O)N2CCCC2c2nc3cc(Cl)c(Cl)cc3[nH]2)c(-c2ccccc2)s1` (centres unmarked) [Ex. 1.119] the same measures were 77 nM and 27 nM.
Consider `Cc1nc(C(=O)N2CCCC2c2nc3cc(Br)ccc3[nH]2)c(-c2ccccc2)s1` (centres unmarked) [Ex. 1.120], for which the figures for the half-maximal inhibitory concentration (IC50) on human orexin-2 receptor and at human orexin-1 receptor were 557 nM and 147 nM, respectively.
In the same order, the values of `Cc1nc(C(=O)N2CCCC2c2nc3cc(C(F)(F)F)ccc3[nH]2)c(-c2ccccc2)s1` (centres unmarked) [Ex. 1.121] are 287 nM and 76 nM.
In the same order, the values of `Cc1nc(C(=O)N2CCCC2c2nc3cc(C)c(C)cc3[nH]2)c(-c2ccccc2)s1` (centres unmarked) [Ex. 1.122] are 45 nM and 55 nM.
In the same order, the values of `Cc1nc(C(=O)N2CCCC2c2nc3c(C)cccc3[nH]2)c(-c2ccccc2)s1` (centres unmarked) [Ex. 1.123] are 70 nM and 147 nM.
`Cc1nc(C(=O)N2CCCC2c2nc3cc(C(C)(C)C)ccc3[nH]2)c(-c2ccccc2)s1` (centres unmarked) [Ex. 1.124]: the IC50 was found to be 42 nM at human orexin-2 receptor and 119 nM on human orexin-1 receptor.
For `Cc1nc(C(=O)N2CCCC2c2nc3c(Cl)cc(C(F)(F)F)cc3[nH]2)c(-c2ccccc2)s1` (centres unmarked) [Ex. 1.125] the same measures were 73 nM and 39 nM.
In the same order, the values of `Cc1nc(C(=O)N2CCCC2c2nc3cc(Cl)c(C)cc3[nH]2)c(-c2ccccc2)s1` (centres unmarked) [Ex. 1.126] are 24 nM and 18 nM.
In the same order, the values of `Cc1cc(C)c2nc(C3CCCN3C(=O)c3nc(C)sc3-c3ccccc3)[nH]c2c1` (centres unmarked) [Ex. 1.127] are 22 nM and 33 nM.
On to `Cc1nc(C(=O)N2CCCC2c2nc3c(CO)cccc3[nH]2)c(-c2ccccc2)s1` (centres unmarked) [Ex. 1.128], for which the IC50 at human orexin-2 receptor amounted to 331 nM; on human orexin-1 receptor, 1480 nM.
For `Cc1nc(C(=O)N2CCCC2c2nc3c(C(F)(F)F)cccc3[nH]2)c(-c2ccccc2)s1` (centres unmarked) [Ex. 1.129] the same measures were 124 nM and 93 nM.
For `Cc1nc(C(=O)N2CCCC2c2nc3c(Br)cccc3[nH]2)c(-c2ccccc2)s1` (centres unmarked) [Ex. 1.130] the same measures were 75 nM and 113 nM.
For `Cc1nc(C(=O)N2CCCC2c2nc3cc(Br)cc(C)c3[nH]2)c(-c2ccccc2)s1` (centres unmarked) [Ex. 1.131] the same measures were 48 nM and 37 nM.
On to `Cc1nc(C(=O)N2CCCC2c2nc3cc(OC(F)(F)F)ccc3[nH]2)c(-c2ccccc2)s1` (centres unmarked) [Ex. 1.132], for which the figures for the IC50 on human orexin-2 receptor and at human orexin-1 receptor were 614 nM and 90 nM, respectively.
Regarding `Cc1nc(C(=O)N2CCCC2c2nc3c(C)c(Cl)ccc3[nH]2)c(-c2ccccc2)s1` (centres unmarked) [Ex. 1.133], the values for the IC50 on human orexin-2 receptor and on human orexin-1 receptor were 11 nM and 4 nM, respectively.
Take `COc1cc2nc(C3CCCN3C(=O)c3nc(C)sc3-c3ccccc3)[nH]c2cc1OC` (centres unmarked) [Ex. 1.134]: the IC50 on human orexin-2 receptor turned out to be 26 nM; on human orexin-1 receptor, 116 nM.
In the same order, the values of `Cc1nc(C(=O)N2CCCC2c2nc3cc(C(F)(F)F)c(F)cc3[nH]2)c(-c2ccccc2)s1` (centres unmarked) [Ex. 1.135] are 194 nM and 32 nM.
In the same order, the values of `Cc1nc(C(=O)N2CCCC2c2nc3cc(F)c(Br)cc3[nH]2)c(-c2ccccc2)s1` (centres unmarked) [Ex. 1.136] are 278 nM and 81 nM.
For `Cc1nc(C(=O)N2CCCC2c2nc3cc(C(F)(F)F)c(Cl)cc3[nH]2)c(-c2ccccc2)s1` (centres unmarked) [Ex. 1.137] the same measures were 33 nM and 4 nM.
On to `Cc1nc(C(=O)N2CCCC2c2nc3c(Br)cc(F)cc3[nH]2)c(-c2ccccc2)s1` (centres unmarked) [Ex. 1.138], for which the concentration for half-maximal inhibition (IC50) came out at 109 nM at human orexin-2 receptor and 35 nM on human orexin-1 receptor.
